Where a name gives a salt, the structure may show the parent alone. Read-outs that look alike come from different tables or passages of the source.
Legend:
[1] = target: T1, human NTCP (Homo sapiens, UniProt Q14973); experiment: Screening taurocholate uptake assay (96-well, [14C]taurocholate, 10 µM drug)
T1 sequence (Q14973 1-349): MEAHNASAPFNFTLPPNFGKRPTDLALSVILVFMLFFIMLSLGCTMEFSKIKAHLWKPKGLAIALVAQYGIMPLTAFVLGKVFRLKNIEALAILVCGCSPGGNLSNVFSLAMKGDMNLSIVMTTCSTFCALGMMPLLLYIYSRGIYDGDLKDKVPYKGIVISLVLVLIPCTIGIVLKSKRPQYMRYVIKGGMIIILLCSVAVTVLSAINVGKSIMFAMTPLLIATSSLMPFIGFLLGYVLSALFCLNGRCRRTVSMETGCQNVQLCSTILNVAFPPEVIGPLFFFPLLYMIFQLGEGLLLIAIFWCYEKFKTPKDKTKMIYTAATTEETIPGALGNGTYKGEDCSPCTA

[2] = target: T1, human NTCP; experiment: Screening fluorescent competitive Myrcludex B-FITC binding assay (96-well, 10 µM drug)
[3] = Prestwick library screen, 10 µM drug, B-score of taurocholate uptake
[4] = combined ranking from functional and binding assay B-scores
[5] = Prestwick library screen, 10 µM drug, B-score of Myrcludex B-FITC binding
[6] = Prestwick library screen, taurocholate uptake, 10 µM drug
[7] = ranking score beside the functional and binding assay B-scores of the screen
[8] = Prestwick library screen, Myrcludex B-FITC binding, 10 µM drug
[9] = combined ranking from functional and binding screening assays
[10] = screen, 10 µM drug, taurocholate uptake
[11] = screen, 10 µM drug, Myrcludex B-FITC binding

Row | Molecule | B-score functional assay [1, 3] | Ranking score [1, 4] | B-score binding assay [2, 5] | Ranking score [1, 9] | B-score functional assay [1, 10] | B-score binding assay [2, 11] | also measured
1 | CN1C(C)(C)CCCC1(C)C [Pempidine tartrate] | 1.102 | 1065.26 | 1.02 |  |  |  | 
2 | COC(=O)Nc1nc2cc(C(=O)c3ccc(F)cc3)ccc2[nH]1 [Flubendazol] |  |  |  |  |  |  | B-score functional assay [1, 6]: 1.185; Ranking score [1, 7]: 683.74; B-score binding assay [2, 8]: -0.335
3 | c1ccc([C@H]2CN3CCSC3=N2)cc1 [Levamisole hydrochloride] | 0.335 | 1002.84 | 1.834 |  |  |  | 
4 | CN1C(C(=O)Nc2ccccn2)=C(O)c2ccccc2S1(=O)=O [Piroxicam] |  |  |  |  |  |  | B-score functional assay [1, 6]: 0.754; Ranking score [1, 7]: 662.993; B-score binding assay [2, 8]: -0.312
5 | Nc1nc(=O)n([C@@H]2CS[C@H](CO)O2)cc1F [(-)-Emtricitabine] | 1.373 | 1006 | 0.464 |  |  |  | 
6 | Cc1cnc(C(=O)NCCc2ccc(S(=O)(=O)NC(=O)NC3CCCCC3)cc2)cn1 [Glipizide] |  |  |  | 412.592 | -1.639 | 0.997 | 
7 | COC(=O)Nc1nc2ccc(C(=O)c3cccs3)cc2[nH]1 [Nocodazole] |  |  |  | 428.035 | -1.345 | 0.497 | 
8 | O=C(CCCN1CCN(c2ccccn2)CC1)c1ccc(F)cc1 [Azaperone] | 0.852 | 931.399 | 0.326 |  |  |  | 
9 | NS(=O)(=O)c1cc(Cl)c(Cl)c(S(N)(=O)=O)c1 [Dichlorphenamide] | 0.709 | 1091.62 | 2.215 |  |  |  | 
10 | CC1CCc2cc(F)cc3c(=O)c(C(=O)O)cn1c23 (stereo not drawn) [Flumequine] | 2.117 | 855.599 | -0.028 |  |  |  | 
11 | CN(C)CCC=C1c2ccccc2COc2ccccc21 [Doxepin hydrochloride] |  |  |  | 385.759 | -1.158 | 0.002 | 
12 | Nc1ccc(S(=O)(=O)[N-]c2cnc3ccccc3n2)cc1.[Na+] [Sulfaquinoxaline sodium salt] | 0.659 | 893.639 | 0.273 |  |  |  | 
13 | CCC1=C(C)CN(C(=O)NCCc2ccc(S(=O)(=O)NC(=O)N[C@H]3CC[C@H](C)CC3)cc2)C1=O [Glimepiride] |  |  |  | 350.338 | -1.888 | 0.412 | 
14 | C1CCC(C(CC2CCCCN2)C2CCCCC2)CC1 (stereo not drawn) [Perhexiline maleate] |  |  |  | 400.32 | -0.011 | -0.916 | 
15 | NS(=O)(=O)c1cc2c(cc1Cl)NC(C(Cl)Cl)NS2(=O)=O (stereo not drawn) [Trichlormethiazide] | 0.593 | 921.314 | 0.486 |  |  |  | 
16 | Cc1ccnc(NS(=O)(=O)c2ccc(N)cc2)n1 [Sulfamerazine] | 1.015 | 923.898 | 0.205 |  |  |  | 
17 | O=P1(NCCCl)OCCCN1CCCl (stereo not drawn) [Ifosfamide] |  |  |  | 334.739 | 0.023 | -1.438 | 
18 | O=C(O)CN(CCN(CC(=O)O)CC(=O)O)CCN(CC(=O)O)CC(=O)O [Pentetic acid] |  |  |  | 406.409 | -0.313 | -0.525 | 
19 | COc1ncnc(NS(=O)(=O)c2ccc(N)cc2)c1OC [Sulfadoxine] | 0.522 | 887.31 | 0.336 |  |  |  | 
20 | CN(Cc1cnc2nc(N)nc(N)c2n1)c1ccc(C(=O)N[C@@H](CCC(=O)O)C(=O)O)cc1 [Methotrexate] |  |  |  |  |  |  | B-score functional assay [1, 6]: 0.045; Ranking score [1, 7]: 661.494; B-score binding assay [2, 8]: -0.007

Row | Molecule | B-score functional assay [1, 3] | Ranking score [1, 4] | B-score binding assay [2, 5] | Ranking score [1, 9] | B-score functional assay [1, 10] | B-score binding assay [2, 11] | also measured
21 | Bacitracin | 1.013 | 1026.66 | 0.785 |  |  |  | 
22 | Fc1ccc(C(c2ccc(F)cc2)N2CCN(C/C=C/c3ccccc3)CC2)cc1 [Flunarizine dihydrochloride] |  |  |  |  |  |  | B-score functional assay [1, 6]: 0.875; Ranking score [1, 7]: 816.419; B-score binding assay [2, 8]: 0.001
23 | CCN(CCO)CCCC(C)Nc1ccnc2cc(Cl)ccc12 (stereo not drawn) [Hydroxychloroquine sulfate] |  |  |  |  |  |  | B-score functional assay [1, 6]: 0.168; Ranking score [1, 7]: 775.907; B-score binding assay [2, 8]: 0.139
24 | c1coc(CNc2ncnc3nc[nH]c23)c1 [6-Furfurylaminopurine] |  |  |  |  |  |  | B-score functional assay [1, 6]: 2.357; Ranking score [1, 7]: 696.25; B-score binding assay [2, 8]: -0.434
25 | Cl.Cl.Cl.Cl.Cl.NCCNCCNCCNCCN |  |  |  |  |  |  | B-score functional assay [1, 6]: -0.035; Ranking score [1, 7]: 758.136; B-score binding assay [2, 8]: 0.678
26 | C[C@H](CCC(=O)O)[C@H]1CC[C@H]2[C@@H]3C(=O)C[C@@H]4CC(=O)CC[C@]4(C)[C@H]3CC(=O)[C@]12C [Dehydrocholic acid] |  |  |  | 309.304 | -1.555 | -0.083 | 
27 | NC1CCN(c2c(F)cc3c(=O)c(C(=O)O)cn(C4CC4)c3c2Cl)C1 (stereo not drawn) [Clinafloxacin] |  |  |  | 295.014 | -0.349 | -1.253 | 
28 | NC(N)=Nc1nc(CSCCC(N)=NS(N)(=O)=O)cs1 [Famotidine] |  |  |  |  |  |  | B-score functional assay [1, 6]: 0.754; Ranking score [1, 7]: 828.628; B-score binding assay [2, 8]: 0.039
29 | CCN(CC)CCNC(=O)c1ccc(N)cc1 [Procainamide hydrochloride] |  |  |  |  |  |  | B-score functional assay [1, 6]: 0.646; Ranking score [1, 7]: 672.44; B-score binding assay [2, 8]: -0.246
30 | Nc1ccc(C(=O)NCC(=O)O)cc1 [Aminohippuric acid] | 1.44 | 1073.5 | 0.866 |  |  |  | 
31 | Cc1ccsc1/C=C/C1=NCCCN1C [Morantel tartrate] |  |  |  | 381 | -0.483 | -0.484 | 
32 | O=C(NC(Cc1cc(=O)[nH]c2ccccc12)C(=O)O)c1ccc(Cl)cc1 (stereo not drawn) [Rebamipide] | 0.089 | 955.076 | 2.49 |  |  |  | 
33 | CC[C@H]1OC(=O)[C@H](C)[C@@H](O[C@H]2C[C@@](C)(OC)[C@@H](O)[C@H](C)O2)[C@H](C)[C@@H](O[C@@H]2O[C@H](C)C[C@H](N(C)C)[C@H]2O)[C@](C)(OC)C[C@@H](C)C(=O)[C@H](C)[C@@H](O)[C@]1(C)O [Clarithromycin] |  |  |  | 370.485 | -1.781 | 0.501 | 
34 | C[C@]12C=CC(=O)C=C1CC[C@@H]1[C@@H]2C(=O)C[C@@]2(C)[C@H]1CC[C@]2(O)C(=O)CO [Prednisone] |  |  |  | 427.034 | -1.367 | 0.54 | 
35 | CC(C(=O)O)c1ccc(N2Cc3ccccc3C2=O)cc1 (stereo not drawn) [Indoprofen] | 0.788 | 897.998 | 0.209 |  |  |  | 
36 | CC(C[N+](C)(C)C)OC(N)=O (stereo not drawn) [Bethanechol chloride] | 1.898 | 1067.05 | 0.661 |  |  |  | 
37 | CN(C)CCC(c1ccccc1)c1ccccn1 (stereo not drawn) [Pheniramine maleate] |  |  |  | 447.397 | -0.685 | -0.017 | 
38 | CN1CCCC(n2nc(Cc3ccc(Cl)cc3)c3ccccc3c2=O)CC1 (stereo not drawn) [Azelastine HCl] | 1.435 | 940.553 | 0.157 |  |  |  | 
39 | CN(C)CCCN1c2ccccc2Sc2ccccc21 [Promazine hydrochloride] |  |  |  |  |  |  | B-score functional assay [1]: 0.194; Ranking score [1]: 494.272; B-score binding assay [2]: -0.725
